From ChEMBL document CHEMBL6074695, “Structural Aspects of Mycobacterium tuberculosis DNA Gyrase Targeted by Novel Bacterial Topoisomerase Inhibitors” (ACS Med Chem Lett, 2024)
In brackets after ≈: the same amount, converted by molar mass.

System: Mycobacterium tuberculosis
Assay type: functional, organism-based
Details: H37Rv, 120 h

SMILES	IC50 [nM]	MIC (time 5 day) [µM]
COc1ccc2nccc(CCN3CCC(NCc4cc(F)c(Cl)c(F)c4)CC3)c2n1	7	–
O=c1ccc2ncc(=O)n3c2n1C[C@H]3CN1CCC(NCc2cc3c(cn2)OCCC3)CC1 [GEPOTIDACIN]	–	0.86 (≈ 0.386 µg/mL)
